Measured values as given in patent US20140243416A1, “Topical Antiandrogen Therapy for the Treatment of Becker's Nevus” (priority 2013, published 2014).

Key:
Becker's nevus = assay: Topical flutamide applied to a Becker's nevus (Example 1, single patient); type: in vivo, person; conditions: topical 4% solution, twice daily
Text: FIG. 1a (left) depicts a person with a Becker's nevus before the antiandrogen treatment as described in example 1. FIG. 1b (right) depicts a person after treatment with a topical antiandrogen, specifically topical flutamide. […] A topical 4% solution of flutamide was applied twice daily to a Becker's nevus. […] (FIG. 1)

[1] = topical application; cited from earlier work

Compound: CC(C)C(=O)Nc1ccc([N+](=O)[O-])c(C(F)(F)F)c1 [flutamide, methyl-N-[4-nitro-3-(trifluoromethyl)phenyl]-propanamide]
- cutaneous or systemic adverse effects (Becker's nevus): No cutaneous or systemic adverse effects
- pigmentary change in the normal skin surrounding the Becker's nevus (Becker's nevus; during treatment): no pigmentary change
- menstrual irregularities (Becker's nevus; patient-reported): denied any menstrual irregularities
- absorption into the skin and systemic absorption [1]: systemic absorption is measurable
